In the NIST ThermoML archive (doi:10.1016/j.jct.2005.02.008):
± gives the expanded uncertainty stated by the source.

Assays:
[1] = molar heat capacity at constant pressure; details: 101.33 kPa, Crystal
[2] = Crystal; for mass density: 298.15 K, 101.33 kPa, Pycnometric method; for Normal melting temperature: DTA; for vapor or sublimation pressure: Calculated from knudsen effusion weight loss

c1ccc(-c2nc3ccccc3[nH]2)cc1 [2-phenylbenzimidazole]
[1]
Details	molar heat capacity at constant pressure [J/K/mol]
268.15 K	185.23 ± 7.4
270.15 K	186.33 ± 7.5
273.15 K	188.41 ± 7.5
275.15 K	189.51 ± 7.6
280.15 K	193.33 ± 7.7
285.15 K	197.27 ± 7.9
290.15 K	201.29 ± 8.1
295.15 K	205.63 ± 8.2
298.15 K	208.09 ± 8.3
300.15 K	209.51 ± 8.4
305.15 K	215.89 ± 8.6
310.15 K	220.71 ± 8.8
315.15 K	224.47 ± 9
320.15 K	228.09 ± 9.1
325.15 K	231.72 ± 9.3
330.15 K	235.41 ± 9.4
335.15 K	238.58 ± 9.5
340.15 K	242.27 ± 9.7
345.15 K	245.77 ± 9.8
350.15 K	249.26 ± 10
355.15 K	252.83 ± 10
360.15 K	256.06 ± 10
365.15 K	259.95 ± 10
370.15 K	263.64 ± 11
375.15 K	266.16 ± 11
380.15 K	269.14 ± 11
385.15 K	272.38 ± 11
390.15 K	276.33 ± 11
395.15 K	280.47 ± 11
400.15 K	285 ± 11
405.15 K	288.95 ± 12
410.15 K	292.32 ± 12
415.15 K	295.82 ± 12
420.15 K	300.09 ± 12
425.15 K	304.1 ± 12
430.15 K	308.05 ± 12
435.15 K	312.13 ± 12
440.15 K	316.02 ± 13
445.15 K	319.51 ± 13
450.15 K	322.1 ± 13

[2]
Details	Normal melting temperature [°C]	mass density [kg/m3]
–	191.0 ± 0.5	1060 ± 10

c1ccc(Cc2nc3ccccc3[nH]2)cc1 [bendazol]
Details	molar heat capacity at constant pressure [J/K/mol]	vapor or sublimation pressure [kPa]
[1], 270.15 K	215.86 ± 8.6	–
[1], 273.15 K	218.67 ± 8.8	–
[1], 275.15 K	220.51 ± 8.8	–
[1], 280.15 K	223.25 ± 8.9	–
[1], 285.15 K	227.59 ± 9.1	–
[1], 290.15 K	228.63 ± 9.2	–
[1], 295.15 K	228.79 ± 9.2	–
[1], 298.15 K	228.92 ± 9.2	–
[1], 300.15 K	229.04 ± 9.2	–
[1], 305.15 K	231.75 ± 9.3	–
[1], 310.15 K	233.79 ± 9.3	–
[1], 315.15 K	237.21 ± 9.5	–
[1], 320.15 K	240.29 ± 9.6	–
[1], 325.15 K	244.91 ± 9.8	–
[1], 330.15 K	248.5 ± 9.9	–
[1], 335.15 K	252.54 ± 10	–
[1], 340.15 K	255.29 ± 10	–
[1], 345.15 K	260.53 ± 10	–
[1], 350.15 K	261.16 ± 10	–
[1], 355.15 K	264.99 ± 11	–
[1], 360.15 K	269.16 ± 11	–
[1], 365.15 K	272.11 ± 11	–
[1], 370.15 K	283.19 ± 11	–
[1], 375.15 K	285.9 ± 11	–
[1], 380.15 K	289.9 ± 12	–
[1], 385.15 K	293.81 ± 12	–
[1], 390.15 K	298.39 ± 12	–
[1], 395.15 K	303.73 ± 12	–
[1], 400.15 K	307.64 ± 12	–
[1], 405.15 K	312.35 ± 12	–
[1], 410.15 K	314.26 ± 13	–
[1], 415.15 K	322.84 ± 13	–
[1], 420.15 K	329.18 ± 13	–
[1], 425.15 K	333.59 ± 13	–
[1], 430.15 K	342.59 ± 14	–
[1], 435.15 K	349.42 ± 14	–
[1], 440.15 K	359.96 ± 14	–
[2], 393.54 K	–	0.000125 ± 6e-06
[2], 396.81 K	–	0.000178 ± 9e-06
[2], 400.16 K	–	0.000248 ± 1.2e-05
[2], 402.04 K	–	0.000299 ± 1.5e-05
[2], 405.47 K	–	0.000419 ± 2.1e-05
[2], 409 K	–	0.000596 ± 3e-05
[2], 412.48 K	–	0.000829 ± 4.1e-05

[2]
Details	Normal melting temperature [°C]	mass density [kg/m3]
–	297.4 ± 0.5	1140 ± 10
